Laboratory results as given in patent US8710085B2, “Pyrrolidine-1,2-dicarboxamide derivatives” (Novartis AG, priority 2008, dated 2014).
Blank lines part the entries; values can stand above or below the compound they belong to.

Assays:
[1] = In vitro metabolic clearance, rat liver microsomes (CYP MetCL-Ra); type: in vitro ADME; conditions: rat liver microsomes 0.5 mg/mL, test article 1.0 μM, NADPH, 37° C.; read-out: CYP MetCL-Ra/CL(int)
Protocol: (§1) Final test article and protein concentrations, as well as incubation duration, are shown below (Table 1). Low test article concentrations were selected to comply with the assumption that reaction kinetics are evaluated at a concentration less than (or approximately equal to) Km. DMSO is known to have an inhibitory effect on CYP activity. Therefore, the concentration of DMSO in the incubation media has been restricted to 0.01% (v/v) so that interference to the metabolic process is minimized.
(§2) A typical experiment is performed in 96-well format with shaking incubation at 37° C. […] A 30 minutes negative control incubation (minus cofactor) is also performed to assess CYP-unrelated stability issues (eg, chemical instability, CYP-independent metabolism).
In general, TA's in 10 mM DMSO are diluted 1:1000 into 0.6% ACN (v/v) in DiH20 to 10 μM. […] For evaluation of UGT-mediated metabolism, the suspension may be first pretreated by 5 min incubation on ice with alamethicin (25 μg/mg of microsomal protein). […]
(§3) The bulk reactions for the remaining time points are initiated by addition of 125 μL of cofactor solution (2 mM NADPH in 50 mM KPi plus 4 mM MgCl2) to the remaining 125 μL of enzyme.substrate mixture. […] All the samples are centrifuged at ˜3400×g at 4° C. for 10 min and the supernatants are analyzed by LC-MS/MS for quantitation of remaining TA. […]

[2] = In vitro metabolic clearance, human liver microsomes (CYP MetCL-Hu); type: in vitro ADME; conditions: human liver microsomes 0.5 mg/mL, test article 1.0 μM, NADPH, 37° C.; read-out: CYP MetCL-Hu/CL(int)
Protocol: as §1, §2
In general, TA's in 10 mM DMSO are diluted 1:1000 into 0.6% ACN (v/v) in DiH20 to 10 μM. […] For evaluation of UGT-mediated metabolism, the suspension may be first pretreated by 5 min incubation on ice with alamethicin (25 μg/mg of microsomal protein). TA (35 μL) is added to 140 μL of the microsomal suspensions for 175 μL enzymesubstrate mixture. […] The 30 min negative control incubation is processed by combining 25 μL of enzyme.substrate mixture with an equal volume of 50 mM KPi containing 4 mM MgCl2. Following a 30 minute incubation at 37° C., the mix is quenched by adding 50 μL of ACN containing the MS internal standard (2 μM alprenolol). The T=0 min time point is processed by combining 25 μL of enzyme.substrate mixture directly with 50 μL of ACN containing the MS internal standard (2 μM alprenolol). 25 μL of the cofactor solution is added (2 mM NADPH in 50 mM KPi plus 4 mM MgCl2; optionally including 2 mM UDPGA for CYP+UGT assays) to simulate the complete quenched reaction mixture.
as §3

[3] = biological target: T1, PI3Kδ (Homo sapiens, UniProt O00329); assay: PI3K KinaseGlo assay, PI3Kδ; type: biochemical; conditions: 10 nM enzyme, 1 μM ATP, 30 mins, room temperature, read-out: PI3Kd/IC50
T1 construct: p85iSH2(461-568)-GGGGGG-p110δ(2-1044)-His; made in house; host or cells: baculovirus, Tn5 insect cells
T1 sequence (O00329 with tags, fused parts or gaps): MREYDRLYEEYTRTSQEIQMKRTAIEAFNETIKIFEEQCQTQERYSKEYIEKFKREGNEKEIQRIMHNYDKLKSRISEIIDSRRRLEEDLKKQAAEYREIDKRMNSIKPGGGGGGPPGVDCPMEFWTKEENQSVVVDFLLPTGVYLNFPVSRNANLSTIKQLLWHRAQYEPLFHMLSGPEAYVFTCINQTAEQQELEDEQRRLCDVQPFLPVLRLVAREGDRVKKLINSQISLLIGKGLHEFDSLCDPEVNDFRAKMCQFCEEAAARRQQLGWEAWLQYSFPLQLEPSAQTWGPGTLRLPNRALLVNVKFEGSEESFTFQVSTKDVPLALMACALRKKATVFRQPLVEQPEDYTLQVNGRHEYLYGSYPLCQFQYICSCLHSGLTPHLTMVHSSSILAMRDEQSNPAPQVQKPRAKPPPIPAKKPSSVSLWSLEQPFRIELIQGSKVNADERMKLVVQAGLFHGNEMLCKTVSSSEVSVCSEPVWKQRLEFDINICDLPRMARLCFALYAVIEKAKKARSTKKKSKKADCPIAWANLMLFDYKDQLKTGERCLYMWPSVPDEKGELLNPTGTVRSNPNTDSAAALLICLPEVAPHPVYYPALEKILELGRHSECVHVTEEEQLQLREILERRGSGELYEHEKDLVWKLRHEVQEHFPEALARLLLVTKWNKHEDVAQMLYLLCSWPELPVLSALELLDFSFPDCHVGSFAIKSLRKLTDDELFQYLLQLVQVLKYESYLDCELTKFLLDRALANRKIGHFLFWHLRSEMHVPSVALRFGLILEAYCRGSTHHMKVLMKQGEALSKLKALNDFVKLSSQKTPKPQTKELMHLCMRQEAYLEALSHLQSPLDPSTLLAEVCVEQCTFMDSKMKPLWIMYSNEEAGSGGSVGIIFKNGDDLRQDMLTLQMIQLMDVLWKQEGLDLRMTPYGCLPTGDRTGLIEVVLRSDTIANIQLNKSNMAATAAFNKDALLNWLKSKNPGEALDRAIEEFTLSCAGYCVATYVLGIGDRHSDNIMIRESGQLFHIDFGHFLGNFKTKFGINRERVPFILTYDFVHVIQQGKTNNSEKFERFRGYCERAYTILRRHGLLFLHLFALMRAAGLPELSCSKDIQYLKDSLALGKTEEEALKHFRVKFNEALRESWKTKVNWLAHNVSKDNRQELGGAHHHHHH

[4] = biological target: T2, PI3Kγ (Homo sapiens, UniProt P48736, Q459R); assay: PI3K KinaseGlo assay, PI3Kγ; type: biochemical; conditions: 150 nM enzyme, 1 μM ATP, 90 mins, room temperature, read-out: PI3Kg/IC50
T2 construct: p110γ(Δ143-[Met144-1102])-His; made in house; host or cells: Tn5 insect cells; construct from Roger Williams lab, MRC LMB
T2 sequence (P48736 with tags, fused parts or gaps Q459R): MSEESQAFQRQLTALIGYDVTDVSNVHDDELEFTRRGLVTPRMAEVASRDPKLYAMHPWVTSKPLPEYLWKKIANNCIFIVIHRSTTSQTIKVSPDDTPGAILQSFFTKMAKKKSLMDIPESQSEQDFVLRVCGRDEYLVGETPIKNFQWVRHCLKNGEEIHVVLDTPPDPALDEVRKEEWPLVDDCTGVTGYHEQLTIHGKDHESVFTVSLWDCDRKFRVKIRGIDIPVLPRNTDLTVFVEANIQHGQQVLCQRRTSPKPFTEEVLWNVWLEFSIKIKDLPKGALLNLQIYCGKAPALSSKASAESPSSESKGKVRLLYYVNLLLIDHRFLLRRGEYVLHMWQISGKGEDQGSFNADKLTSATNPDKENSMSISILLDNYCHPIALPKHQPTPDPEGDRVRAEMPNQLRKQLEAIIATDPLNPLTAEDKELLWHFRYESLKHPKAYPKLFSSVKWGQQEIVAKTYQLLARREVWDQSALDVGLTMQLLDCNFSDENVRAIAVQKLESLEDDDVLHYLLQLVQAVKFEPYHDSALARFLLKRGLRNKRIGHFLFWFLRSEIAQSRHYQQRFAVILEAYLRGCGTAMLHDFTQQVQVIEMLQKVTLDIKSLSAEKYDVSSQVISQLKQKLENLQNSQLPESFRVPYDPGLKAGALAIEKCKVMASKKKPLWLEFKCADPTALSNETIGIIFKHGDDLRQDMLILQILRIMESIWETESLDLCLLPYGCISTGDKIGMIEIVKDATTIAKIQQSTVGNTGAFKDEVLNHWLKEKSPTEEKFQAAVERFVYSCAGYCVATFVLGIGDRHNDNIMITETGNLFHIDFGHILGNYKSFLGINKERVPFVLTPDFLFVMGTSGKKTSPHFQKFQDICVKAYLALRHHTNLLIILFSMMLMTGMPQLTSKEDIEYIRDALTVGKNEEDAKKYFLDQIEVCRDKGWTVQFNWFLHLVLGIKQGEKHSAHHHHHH
Protocol: (§4) L-a-phosphatidylinositol (PI), provided as 10 mg/ml solution in methanol, was transferred into a glass tube and dried under nitrogen beam. It was then resuspended in 3% OctylGlucoside (OG) by vortexing and stored at 4° C. The KinaseGlo Luminescent Kinase Assay (Promega, Madison/WI, USA) is a homogeneous HTS method of measuring kinase activity by quantifying the amount of ATP remaining in solution following a kinase reaction.
5 μL of a mix of PI/OG with the PI3K subtype were added (Table 1). Kinase reactions were started by addition of 5 μl of ATP-mix containing in a final volume 10 μL 10 mM TRIS-HCl pH 7.5, 3 mM MgCl2, 50 mM NaCl, 0.05% CHAPS, 1 mM DTT and 1 μM ATP, and occurred at room temperature. […] The standard was used as a reference compound and included in all assay plates in the form of 16 dilution points in duplicate. […]
(§5) PI3Kα, PI3Kβ and PI3Kγ were purified in two chromatographic steps: immobilized metal affinity chromatography (IMAC) on a Ni sepharose resin (GE Healthcare) and gel filtration utilizing a Superdex 200 26/60 column (GE Healthcare). All buffers were chilled to 4° C. and lysis was performed chilled on ice. Column fractionation was performed at room temperature. All buffers used to purify PI3Kβ contained 0.05% Triton X100 in addition to what is described below.
(§6) The lysate was centrifuged at 45,000 g for 30 minutes, and the supernatant was loaded onto a pre-equilibrated IMAC column (3 mL resin/100 mL lysate). […] Protein was eluted with 20 mM Tris-Cl, pH 7.5, 0.5 M NaCl, 5% glycerol, 250 mM imidazole, 1 mM NaF, 0.1 μg/mL OAA, 5 mM BME, 1× Complete protease inhibitor cocktail—EDTA-free. Pertinent fractions were analyzed by SDS-PAGE and pooled accordingly. The protein was further purified by gel filtration on a Superdex 200 26/60 column equilibrated in 20 mM Tris-Cl, pH 7.5, 0.5 M NaCl, 5% glycerol, 1 mM NaF, 5 mM DTT, 1× Complete protease inhibitor cocktail—EDTA-free. Pertinent fractions were analyzed by SDS-PAGE and pooled accordingly. An equal volume of Dialysis Buffer (20 mM Tris-Cl, pH 7.5, 500 mM NaCl, 50% glycerol, 5 mM NaF, 5 mM DTT) was added to the pool and than dialyzed against Dialysis Buffer two changes (one change overnight). Protein was stored at −20° C.

[5] = biological target: T3, PI3Kβ (Homo sapiens, UniProt P42338); assay: PI3K KinaseGlo assay, PI3Kβ; type: biochemical; conditions: KinaseGlo; 25 nM enzyme, 1 μM ATP, 30 mins, room temperature; read-out: PI3Kb/IC50
T3 construct: p110β(2-1070)-His; made in house; host or cells: baculovirus, Tn5 insect cells
T3 sequence (P42338 with tags, fused parts or gaps): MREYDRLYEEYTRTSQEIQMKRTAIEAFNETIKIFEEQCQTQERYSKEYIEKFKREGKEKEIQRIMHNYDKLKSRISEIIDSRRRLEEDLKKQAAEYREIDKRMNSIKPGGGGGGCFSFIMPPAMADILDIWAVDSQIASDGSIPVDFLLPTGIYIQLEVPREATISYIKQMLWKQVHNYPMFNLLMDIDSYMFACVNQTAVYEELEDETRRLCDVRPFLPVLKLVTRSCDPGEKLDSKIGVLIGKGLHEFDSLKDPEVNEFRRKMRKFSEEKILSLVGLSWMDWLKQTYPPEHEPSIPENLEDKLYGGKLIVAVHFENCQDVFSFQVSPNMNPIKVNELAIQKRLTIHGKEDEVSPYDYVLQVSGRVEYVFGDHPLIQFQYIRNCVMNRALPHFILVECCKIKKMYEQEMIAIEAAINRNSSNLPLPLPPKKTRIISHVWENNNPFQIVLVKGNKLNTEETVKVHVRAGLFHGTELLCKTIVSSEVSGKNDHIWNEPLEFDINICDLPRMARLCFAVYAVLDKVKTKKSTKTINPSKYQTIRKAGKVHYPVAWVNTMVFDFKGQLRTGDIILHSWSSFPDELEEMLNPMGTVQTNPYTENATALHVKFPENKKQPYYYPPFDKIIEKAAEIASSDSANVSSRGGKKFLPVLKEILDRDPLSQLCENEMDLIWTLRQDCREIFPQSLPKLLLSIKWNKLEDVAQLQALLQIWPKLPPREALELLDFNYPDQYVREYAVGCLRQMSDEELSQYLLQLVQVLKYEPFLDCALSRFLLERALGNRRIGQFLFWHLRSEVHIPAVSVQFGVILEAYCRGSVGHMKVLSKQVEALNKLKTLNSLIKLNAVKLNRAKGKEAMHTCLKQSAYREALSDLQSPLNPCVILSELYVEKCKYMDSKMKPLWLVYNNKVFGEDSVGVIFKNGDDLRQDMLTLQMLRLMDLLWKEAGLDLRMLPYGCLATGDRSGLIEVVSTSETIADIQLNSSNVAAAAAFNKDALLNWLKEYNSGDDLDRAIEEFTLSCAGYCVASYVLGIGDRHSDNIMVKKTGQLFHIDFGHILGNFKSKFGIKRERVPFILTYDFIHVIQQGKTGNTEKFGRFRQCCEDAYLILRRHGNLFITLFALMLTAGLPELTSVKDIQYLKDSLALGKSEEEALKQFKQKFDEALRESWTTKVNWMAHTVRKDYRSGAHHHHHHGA
Protocol: as §4, with “PI3K KinaseGlo assay: […] of compound dilutions were dispensed onto black 384-well low volume Non Binding Styrene (NBS) plates (Costar Cat. No. NBS#3676). L-a-phosphatidylinositol” for “L-a-phosphatidylinositol”
5 μL of a mix of PI/OG with the PI3K subtype were added (Table 1). Kinase reactions were started by addition of 5 μl of ATP-mix containing in a final volume 10 μL 10 mM TRIS-HCl pH 7.5, 3 mM MgCl2, 50 mM NaCl, 0.05% CHAPS, 1 mM DTT and 1 μM ATP, and occurred at room temperature. […] The standard was used as a reference compound and included in all assay plates in the form of 16 dilution points in duplicate.
The PI3Kα, PI3Kβ and PI3Kδ constructs are fusion of p85α iSH2 domain and the respective p110 isoforms. The p85α fragment and p110 isoform genes were generated by PCR from first strand cDNA generated by RT-PCR from commercial RNA from placenta, testis and brain as described below. The PI3Kγ construct was obtained from Roger Williams lab, MRC Laboratory of Molecular Biology, Cambridge, UK (November, 2003) and is described (Pacold, Michael E.; Suire, Sabine; Perisic, Olga; Lara-Gonzalez, Samuel; Davis, Colin T.; Walker, Edward H.; Hawkins, Phillip T.; Stephens, Len; Eccleston, John F.; Williams, Roger L. Crystal structure and functional analysis of Ras binding to its effector phosphoinositide 3-kinase gamma. Cell (2000), 103(6), 931-943).
BV949: PCR products for the inter SH2 domain (iSH2) of the p85 PI3Kα, PI13Kβ and PI3Kδ subunit and for the full-length p110β subunit were generated and fused by overlapping PCR. […] The p11013 fragment was obtained by PCR using as template a p110β clone (from unknown source that was sequence verified) using primers gwG130-p04 (5′-[…]-[…]-3′) (SEQ ID NO: 9) which contains linker sequences and the 5′ end of p110β and gwG130-p06 (5′-[…]-[…]-3′) (SEQ ID NO: 10) which contains sequences of the 3′ end of p110-β fused to a Histidine tag. […] This final product was recombined in a Gateway (Invitrogen) […] into the donor vector pDONR201 (Invitrogen) to generate the ORF253 entry clone. This clone was verified by sequencing and used in a Gateway LR reaction (Invitrogen) to transfer the insert into the Gateway adapted pBlueBac4.5 (Invitrogen) vector for generation of the baculovirus expression vector LR280.
as §5
as §6, with “accordingly.” for “accordingly. An equal volume of Dialysis Buffer (20 mM Tris-Cl, pH 7.5, 500 mM NaCl, 50% glycerol, 5 mM NaF, 5 mM DTT) was added to the pool and than dialyzed against Dialysis Buffer two changes (one change overnight). Protein was stored at −20° C.”

[6] = biological target: T4, PI3Kα (Homo sapiens, UniProt P42336); assay: PI3K KinaseGlo assay, PI3Kα; type: biochemical; conditions: KinaseGlo, 10 nM enzyme, 1 μM ATP, 30 mins, room temperature
T4 construct: p110α(21-1068)-His; made in house; host or cells: baculovirus, Tn5 insect cells
T4 sequence (P42336 with tags, fused parts or gaps): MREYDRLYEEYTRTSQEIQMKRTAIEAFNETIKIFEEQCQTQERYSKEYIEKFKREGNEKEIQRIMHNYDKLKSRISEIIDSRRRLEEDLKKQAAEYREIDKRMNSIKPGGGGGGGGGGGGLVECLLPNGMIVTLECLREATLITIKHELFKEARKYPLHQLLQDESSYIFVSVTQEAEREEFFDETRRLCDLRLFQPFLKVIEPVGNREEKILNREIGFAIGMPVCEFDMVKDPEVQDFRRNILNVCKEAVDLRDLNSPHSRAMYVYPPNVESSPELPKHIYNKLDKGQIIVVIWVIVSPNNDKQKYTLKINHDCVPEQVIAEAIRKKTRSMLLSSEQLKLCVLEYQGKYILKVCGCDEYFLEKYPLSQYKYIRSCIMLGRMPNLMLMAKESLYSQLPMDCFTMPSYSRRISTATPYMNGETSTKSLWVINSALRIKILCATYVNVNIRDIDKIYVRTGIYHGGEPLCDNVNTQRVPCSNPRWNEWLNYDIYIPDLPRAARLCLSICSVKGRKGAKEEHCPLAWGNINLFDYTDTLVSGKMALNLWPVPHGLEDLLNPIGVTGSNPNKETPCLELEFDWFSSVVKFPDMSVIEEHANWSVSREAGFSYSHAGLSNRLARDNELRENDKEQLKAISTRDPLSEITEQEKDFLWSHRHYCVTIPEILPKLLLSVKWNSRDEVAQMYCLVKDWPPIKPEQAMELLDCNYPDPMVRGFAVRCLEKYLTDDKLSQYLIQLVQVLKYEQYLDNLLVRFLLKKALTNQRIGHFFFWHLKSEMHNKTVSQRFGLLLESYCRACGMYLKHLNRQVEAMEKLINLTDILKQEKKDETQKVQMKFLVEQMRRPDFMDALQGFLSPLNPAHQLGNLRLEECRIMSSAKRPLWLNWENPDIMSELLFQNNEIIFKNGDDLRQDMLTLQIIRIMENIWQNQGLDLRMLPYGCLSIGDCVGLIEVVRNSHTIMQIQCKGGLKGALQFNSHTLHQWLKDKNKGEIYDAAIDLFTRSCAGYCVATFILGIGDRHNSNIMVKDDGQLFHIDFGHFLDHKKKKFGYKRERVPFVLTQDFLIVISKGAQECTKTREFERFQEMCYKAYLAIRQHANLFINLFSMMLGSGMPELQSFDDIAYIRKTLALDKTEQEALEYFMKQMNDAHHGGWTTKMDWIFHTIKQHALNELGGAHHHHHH

melting point: 187 to 190 °C
Compound: Cc1nc(NC(=O)N2CCC[C@H]2C(N)=O)sc1-c1ccnc(C(C)(C)CF)n1 [Example 71, (S)-Pyrrolidine-1,2-dicarboxylic acid 2-amide 1-({5-[2-(2-fluoro-1,1-dimethylethyl)-pyrimidin-4-yl]-4-methyl-thiazol-2-yl}-amide)]

Compound: [2H]C([2H])([2H])C(c1nccc(-c2sc(NC(=O)N3CCC[C@H]3C(N)=O)nc2C)n1)(C([2H])([2H])[2H])C([2H])([2H])[2H] [Example 61, (S)-Pyrrolidine-1,2-dicarboxylic acid 2-amide 1-{[5-(2-d9-tert-butyl-pyrimidin-4-yl)-4-methyl-thiazol-2-yl]-amide}]
microsomal CLint at 1 μM [1]: 22 µL/min/mg
microsomal CLint at 1 μM [2]: 19 µL/min/mg

microsomal CLint at 1 μM [2]: 33 µL/min/mg
Compound: Cc1nc(NC(=O)N2CCC[C@H]2C(N)=O)sc1-c1ccnc(C(C)(C)C(F)(F)F)c1 [Example 15, (S)-Pyrrolidine-1,2-dicarboxylic acid 2-amide 1-({4-methyl-5-[2-(2,2,2-trifluoro-1,1-dimethyl-ethyl)-pyridin-4-yl]-thiazol-2-yl}-amide)]

melting point: 220 to 222 °C
Compound: Cc1nc(NC(=O)N2CCC[C@H]2C(N)=O)sc1-c1ccnc(CC2CC2)n1 [Example 70, (S)-Pyrrolidine-1,2-dicarboxylic acid 2-amide 1-{[5-(2-cyclopropylmethyl-pyrimidin-4-yl)-4-methyl-thiazol-2-yl]-amide}]

melting point: 197 to 199 °C
Compound: Cc1cc(-c2sc(NC(=O)N3CCC[C@H]3C(N)=O)nc2C)nc(C(C)(C)C)n1 [Example 72, (S)-Pyrrolidine-1,2-dicarboxylic acid 2-amide 1-{[5-(2-tert-butyl-6-methylpyrimidin-4-yl)-4-methyl-thiazol-2-yl]-amide}]

IC50 [3]: 538 nM
IC50 [4]: 612 nM
IC50 [5]: 4140 nM
PI3Ka/IC50 [6]: 0.019 umol I-1
Compound: Cc1nc(NC(=O)N2CCC[C@H]2C(N)=O)sc1-c1ccnc(C2(C#N)CC2)c1 [Example 18, (S)-Pyrrolidine-1,2-dicarboxylic acid 2-amide 1-({5-[2-(1-cyano-cyclopropyl)pyridin-4-yl]-4-methyl-thiazol-2-yl}-amide)]

IC50 [3]: 881 nM
IC50 [4]: 917 nM
IC50 [5]: 3500 nM
IC50 ([6]; read-out: PI3Ka/IC50): 64 nM
Compound: Cc1nc(NC(=O)N2CCC[C@H]2C(N)=O)sc1-c1ccnc(C2CC2)n1 [Example 59, (S)-Pyrrolidine-1,2-dicarboxylic acid 2-amide 1-({4-methyl-5-[2-cyclopropyl-pyrimidin-4-yl]thiazol-2-yl-}-amide)]
